Values of other authors, collected in US8318954B2, “Cleavable carnitine compound” (Nou Life Sciences, Inc., priority 2006, dated 2012).
Entries after “also recorded” stand apart in the source; their conditions may differ. Read-outs that look alike come from different tables or passages of the source.

Experiments:
[1] = tested on: mice and rats; conditions: cited from earlier work
[2] = tested on: rats with unilateral sciatic nerve division; conditions: cited from earlier work
[3] = tested on: rats with unilateral sciatic nerve division; conditions: 50 mg/kg/day i.p. for 6 weeks; compared to no treatment; cited from earlier work
[4] = tested on: chinchilla laniger; conditions: cited from earlier work
[5] = tested on: subcutaneous adipocytes in rats; conditions: long-term administration, rat; cited from earlier work
[6] = tested on: diabetic rats; conditions: diabetic rat, 30 days after sciatic nerve cutting; diet: 200 mg/kg acetyl L-carnitine, 200 mg/kg carnitine mixture, 50 mg/kg α-lipoic acid daily; cited from earlier work
[7] = tested on: diabetic rats; conditions: streptozocin diabetic rats, sciatic nerve; amount administered not specified; cited from earlier work
[8] = tested on: Wobbler mice; conditions: twenty days oral, acetyl L-carnitine 200 mg/kg, carnitine mixture 200 mg/kg, α-lipoic acid 50 mg/kg; cited from earlier work
[9] = tested on: patients having diabetic neuropathy; conditions: cited from earlier work
[10] = three weeks after noise exposure

SMILES: CC(=O)O[C@H](CC(=O)[O-])C[N+](C)(C)C [Acetyl-L-carnitine]
- dose that can be parenterally administered ([1]; parenteral, mice and rats): up to 250 mg/kg
- tolerability on prolonged administration ([1]; via the diet, 30 consecutive days, 200 mg/kg acetyl L-carnitine together with 100 mg/kg alpha lipoic acid): well tolerated
- number of TUNEL-positive neurons ([2]; 2 weeks after axotomy, high-dose 50 mg/kg/day parenteral, 50 mg/kg/day): 3 /group
- number of TUNEL-positive neurons ([2]; 2 weeks after axotomy, high-dose 50 mg/kg/day parenteral, listed as ALCAR, 50 mg/kg/day): significantly reduced
- neuron loss ([2]; 2 weeks after axotomy, high-dose 50 mg/kg/day, 50 mg/kg/day): 2%
- neuron loss ([2]; 2 weeks after axotomy, high-dose 50 mg/kg/day, listed as ALCAR, 50 mg/kg/day): significantly reduced
- number of TUNEL-positive neurons ([2]; 2 weeks after axotomy, low-dose 10 mg/kg/day parenteral): 6 /group
- neuron loss ([2]; 2 weeks after axotomy, low-dose 10 mg/kg/day): 0%
- neuron loss ([2]; two months after axotomy, high-dose 50 mg/kg/day): −4%
- immunostaining for Schwann cells, percentage area [3]: 86 % increase
- immunostaining for Schwann cells, total area [3]: 111 % increase
- immunostaining for nerve fibres, percentage area [3]: 229 % increase
- immunostaining for nerve fibres, total area [3]: 264 % increase
- regeneration into the distal stump, percentage area [3]: 3,034 % increase
- regeneration into the distal stump, total area [3]: 2,242 % increase
- outer hair cell loss ([4]; 4- to 10-kHz region): < 10%
- inner and outer hair cell loss ([4]; in vivo): reduced
- threshold shift at 2 to 4 kHz [4, 10]: no threshold shift
- threshold shifts at 6 to 8 kHz [4, 10]: < 10 dB
- size of subcutaneous adipocytes in aging skin [5]: blocks progressive increase in size
- Density of tibial nerve degenerate elements [6]: 0.16 ± 0.02 per 100 nm^2
- Number of tibial nerve degenerate elements [6]: 560 ± 61
- NMCV [7]: 34.5 ± 2.1 m/sec
- % increase in running time [8]: 35 ± 3.2%
- tolerability ([9]; 1000 mg/day i.m. 10 days, then 2000 mg/day oral 355 days, 12 month period): well tolerated
- nerve conduction velocity NCV ([9]; at 6- and 12 months, compared to placebo): statistically significant improvement
- Amplitude ([9]; at 12 months, patients with impaired electrophysiological parameters at baseline, compared to placebo): statistically significant improvement
- pain (visual analogue scale) ([9]; compared to placebo): significant reduction; also recorded: statistically significant improvement
